Experimental findings from PubChem BioAssay (NCI) are described below.

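Tested at 5 concentrations; 48 h exposure; 96-well plates; endpoints linearly interpolated, else capped at highest concentration. TGI denotes the concentration required for complete inhibition of growth.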 A value given as a limit tells only on which side of the number the result lay.

In the first test the test system is SF-539 CNS. The test can be described thus: NCI anticancer screen, dose series, 48 h.
In the case of `Nc1nc2c(ncn2Cc2ccc(CO)cc2)c(=O)[nH]1`, the TGI is > 100 µM.

For `O=P(O)(Cc1ccccc1)c1ccccc1-c1ccccc1`, the TGI is > 100 µM.

Consider `CCO/C=N/NC(=O)CSc1nc2ccc(I)cc2c(=O)n1Cc1ccccc1`, for which the TGI was > 100 µM.

Regarding `CC12CC(C#N)(C#N)C(C#N)(CO1)C(=N)O2` (stereo not given), the TGI was > 100 µM.

Regarding `CC(C)=C1C(=O)C[C@]2(C)C[C@H]3/C(=C(/C)CCC12)CC[C@@]3(C)O` (stereo not given in full), the TGI was > 50 µM.

In the case of `CCCCn1c(C)c2c(c1C)C(=O)N(CC(O)CN1CCc3ccccc3C1)C2=O` (stereo not given), the TGI is > 100 µM.

Turning to `Cc1cc(C)nc(NS(=O)(=O)c2ccc(NNC(=O)c3cccc4c(=O)c5ccccc5[nH]c34)cc2)n1`, the TGI is > 100 µM.

`O=C(NCCCN(CCCCN(CCCNC(=O)C(F)(F)F)CCCc1ccccc1)CCCc1ccccc1)C(F)(F)F` came in with a TGI of 3.16 µM.

For the molecule `COc1cc(C2SCC(=O)N2c2ccc(Cl)c(Cl)c2)cc(OC)c1OC` (stereo not given), the TGI was > 100 µM.

Molecule `COc1cccc2c1C(=O)c1c(O)c3c(c(O)c1C2=O)C[C@@](O)(C(=O)CO)C[C@@H]3OC1CC(N)C(OC)C(C)O1` (stereo not given in full) returned a TGI of 0.449 µM.

`C[C@H]1C2Cc3cc(N)ccc3[C@@]1(C)CCN2CCc1ccccc1`: the TGI was > 100 µM.

Regarding `COC(=O)c1c(O)ccc2c1c1c(n2Cc2ccc(Cl)cc2Cl)C(=O)c2ccccc2C1`, the TGI was > 100 µM.

`NCCCNCCCCNCCCN` yielded a TGI of 34.3 µM.

On to `CCOC(=O)c1cc(C2(O)CCN(CC(C)CC)C2=O)c(-c2cc(C)no2)[nH]1` (stereo not given), for which the TGI is > 100 µM.

In a further test the test system is HL-60(TB) leukemia. Kind of test: NCI anticancer screen, dose series, 48 h.
For the molecule `Nc1nc2c(ncn2Cc2ccc(CO)cc2)c(=O)[nH]1`, the TGI is > 100 µM.

`O=P(O)(Cc1ccccc1)c1ccccc1-c1ccccc1`: the TGI is > 100 µM.

Turning to `CCO/C=N/NC(=O)CSc1nc2ccc(I)cc2c(=O)n1Cc1ccccc1`, the TGI was > 100 µM.

As for `CC12CC(C#N)(C#N)C(C#N)(CO1)C(=N)O2` (stereo not given), the TGI is > 100 µM.

`CC(C)=C1C(=O)C[C@]2(C)C[C@H]3/C(=C(/C)CCC12)CC[C@@]3(C)O` (stereo not given in full) had a TGI of 28.6 µM.

Turning to `CCCCn1c(C)c2c(c1C)C(=O)N(CC(O)CN1CCc3ccccc3C1)C2=O` (stereo not given), the TGI was > 100 µM.

Turning to `Cc1cc(C)nc(NS(=O)(=O)c2ccc(NNC(=O)c3cccc4c(=O)c5ccccc5[nH]c34)cc2)n1`, the TGI was > 100 µM.

With `O=C(NCCCN(CCCCN(CCCNC(=O)C(F)(F)F)CCCc1ccccc1)CCCc1ccccc1)C(F)(F)F`, the TGI was found to be 23.9 µM.

Turning to `COc1cc(C2SCC(=O)N2c2ccc(Cl)c(Cl)c2)cc(OC)c1OC` (stereo not given), the TGI was > 73.9 µM.

As for `COc1cccc2c1C(=O)c1c(O)c3c(c(O)c1C2=O)C[C@@](O)(C(=O)CO)C[C@@H]3OC1CC(N)C(OC)C(C)O1` (stereo not given in full), the TGI is 0.388 µM.

In the case of `C[C@H]1C2Cc3cc(N)ccc3[C@@]1(C)CCN2CCc1ccccc1`, the TGI is 87.7 µM.

`COC(=O)c1c(O)ccc2c1c1c(n2Cc2ccc(Cl)cc2Cl)C(=O)c2ccccc2C1`: the TGI is > 100 µM.

Molecule `NCCCNCCCCNCCCN` returned a TGI of 15.2 µM.

With `CCOC(=O)c1cc(C2(O)CCN(CC(C)CC)C2=O)c(-c2cc(C)no2)[nH]1` (stereo not given), the TGI was > 100 µM.

A further test concerns KM12 colon. Kind of test: NCI anticancer screen, dose series, 48 h.
`Nc1nc2c(ncn2Cc2ccc(CO)cc2)c(=O)[nH]1`: the TGI is > 100 µM.

In the case of `O=P(O)(Cc1ccccc1)c1ccccc1-c1ccccc1`, the TGI is > 100 µM.

For `CCO/C=N/NC(=O)CSc1nc2ccc(I)cc2c(=O)n1Cc1ccccc1`, the TGI was > 100 µM.

Turning to `CC12CC(C#N)(C#N)C(C#N)(CO1)C(=N)O2` (stereo not given), the TGI was > 100 µM.

In the case of `CC(C)=C1C(=O)C[C@]2(C)C[C@H]3/C(=C(/C)CCC12)CC[C@@]3(C)O` (stereo not given in full), the TGI is > 50 µM.

For `CCCCn1c(C)c2c(c1C)C(=O)N(CC(O)CN1CCc3ccccc3C1)C2=O` (stereo not given), the TGI was > 100 µM.

On to `Cc1cc(C)nc(NS(=O)(=O)c2ccc(NNC(=O)c3cccc4c(=O)c5ccccc5[nH]c34)cc2)n1`, for which the TGI is > 100 µM.

In the case of `O=C(NCCCN(CCCCN(CCCNC(=O)C(F)(F)F)CCCc1ccccc1)CCCc1ccccc1)C(F)(F)F`, the TGI is 3.65 µM.

`COc1cc(C2SCC(=O)N2c2ccc(Cl)c(Cl)c2)cc(OC)c1OC` (stereo not given) had a TGI of 51 µM.

`COc1cccc2c1C(=O)c1c(O)c3c(c(O)c1C2=O)C[C@@](O)(C(=O)CO)C[C@@H]3OC1CC(N)C(OC)C(C)O1` (stereo not given in full) came in with a TGI of 0.931 µM.

`C[C@H]1C2Cc3cc(N)ccc3[C@@]1(C)CCN2CCc1ccccc1`: the TGI is > 100 µM.

Turning to `COC(=O)c1c(O)ccc2c1c1c(n2Cc2ccc(Cl)cc2Cl)C(=O)c2ccccc2C1`, the TGI was > 100 µM.

Turning to `NCCCNCCCCNCCCN`, the TGI was > 100 µM.

Take `CCOC(=O)c1cc(C2(O)CCN(CC(C)CC)C2=O)c(-c2cc(C)no2)[nH]1` (stereo not given): the TGI is > 100 µM.

In another test the test system is RXF 393 renal. The test can be described thus: NCI anticancer screen, dose series, 48 h.
`Nc1nc2c(ncn2Cc2ccc(CO)cc2)c(=O)[nH]1`: the TGI is > 100 µM.

On to `O=P(O)(Cc1ccccc1)c1ccccc1-c1ccccc1`, for which the TGI was > 100 µM.

As for `CCO/C=N/NC(=O)CSc1nc2ccc(I)cc2c(=O)n1Cc1ccccc1`, the TGI was > 100 µM.

For the molecule `CC12CC(C#N)(C#N)C(C#N)(CO1)C(=N)O2` (stereo not given), the TGI was > 100 µM.

With `CC(C)=C1C(=O)C[C@]2(C)C[C@H]3/C(=C(/C)CCC12)CC[C@@]3(C)O` (stereo not given in full), the TGI is > 50 µM.

As to `CCCCn1c(C)c2c(c1C)C(=O)N(CC(O)CN1CCc3ccccc3C1)C2=O` (stereo not given), the TGI is > 100 µM.

As for `Cc1cc(C)nc(NS(=O)(=O)c2ccc(NNC(=O)c3cccc4c(=O)c5ccccc5[nH]c34)cc2)n1`, the TGI was > 100 µM.

As for `O=C(NCCCN(CCCCN(CCCNC(=O)C(F)(F)F)CCCc1ccccc1)CCCc1ccccc1)C(F)(F)F`, the TGI was 3.31 µM.

In turn, `COc1cc(C2SCC(=O)N2c2ccc(Cl)c(Cl)c2)cc(OC)c1OC` (stereo not given) came in with a TGI of 43.5 µM.

`COc1cccc2c1C(=O)c1c(O)c3c(c(O)c1C2=O)C[C@@](O)(C(=O)CO)C[C@@H]3OC1CC(N)C(OC)C(C)O1` (stereo not given in full) showed a TGI of 0.825 µM.

With `C[C@H]1C2Cc3cc(N)ccc3[C@@]1(C)CCN2CCc1ccccc1`, the TGI was > 100 µM.

For the molecule `COC(=O)c1c(O)ccc2c1c1c(n2Cc2ccc(Cl)cc2Cl)C(=O)c2ccccc2C1`, the TGI is 78.8 µM.

Turning to `NCCCNCCCCNCCCN`, the TGI amounted to 28.3 µM.

With `CCOC(=O)c1cc(C2(O)CCN(CC(C)CC)C2=O)c(-c2cc(C)no2)[nH]1` (stereo not given), the TGI is > 100 µM.

The next test concerns SK-MEL-5 melanoma. The test can be described thus: NCI anticancer screen, dose series, 48 h.
Regarding `Nc1nc2c(ncn2Cc2ccc(CO)cc2)c(=O)[nH]1`, the TGI was > 100 µM.

Regarding `O=P(O)(Cc1ccccc1)c1ccccc1-c1ccccc1`, the TGI is > 100 µM.

For the molecule `CCO/C=N/NC(=O)CSc1nc2ccc(I)cc2c(=O)n1Cc1ccccc1`, the TGI was > 100 µM.

`CC12CC(C#N)(C#N)C(C#N)(CO1)C(=N)O2` (stereo not given): the TGI is > 100 µM.

Take `CC(C)=C1C(=O)C[C@]2(C)C[C@H]3/C(=C(/C)CCC12)CC[C@@]3(C)O` (stereo not given in full): the TGI is > 50 µM.

Turning to `CCCCn1c(C)c2c(c1C)C(=O)N(CC(O)CN1CCc3ccccc3C1)C2=O` (stereo not given), the TGI is > 100 µM.

For the molecule `Cc1cc(C)nc(NS(=O)(=O)c2ccc(NNC(=O)c3cccc4c(=O)c5ccccc5[nH]c34)cc2)n1`, the TGI was > 100 µM.

In turn, `O=C(NCCCN(CCCCN(CCCNC(=O)C(F)(F)F)CCCc1ccccc1)CCCc1ccccc1)C(F)(F)F` gave a TGI of 3.43 µM.

For `COc1cc(C2SCC(=O)N2c2ccc(Cl)c(Cl)c2)cc(OC)c1OC` (stereo not given), the TGI is > 100 µM.

`COc1cccc2c1C(=O)c1c(O)c3c(c(O)c1C2=O)C[C@@](O)(C(=O)CO)C[C@@H]3OC1CC(N)C(OC)C(C)O1` (stereo not given in full) gave a TGI of 0.189 µM.

Turning to `C[C@H]1C2Cc3cc(N)ccc3[C@@]1(C)CCN2CCc1ccccc1`, the TGI was determined as 37.2 µM.

Take `COC(=O)c1c(O)ccc2c1c1c(n2Cc2ccc(Cl)cc2Cl)C(=O)c2ccccc2C1`: the TGI was > 100 µM.

Turning to `NCCCNCCCCNCCCN`, the TGI is > 100 µM.

For `CCOC(=O)c1cc(C2(O)CCN(CC(C)CC)C2=O)c(-c2cc(C)no2)[nH]1` (stereo not given), the TGI is > 100 µM.
